Legend:
[1] = human, serum, 2 h
[2] = Cytotoxicity against BoNT/A treated human iPSC cells assessed as cell rounding at 100 uM incubated for 7.5 hrs by Western blot analysis; assay type: toxicity, cell-based
[3] = target: Matrix metalloproteinase-14 (Homo sapiens, UniProt P50281); test: Inhibition of MMP-14 (unknown origin) at 25 uM; assay type: toxicity
[4] = target: T1, Matrix metalloproteinase-19 (Homo sapiens, UniProt Q99542); test: Inhibition of MMP-19 (unknown origin) at 25 uM; assay type: toxicity
T1 sequence (Q99542 whole entry): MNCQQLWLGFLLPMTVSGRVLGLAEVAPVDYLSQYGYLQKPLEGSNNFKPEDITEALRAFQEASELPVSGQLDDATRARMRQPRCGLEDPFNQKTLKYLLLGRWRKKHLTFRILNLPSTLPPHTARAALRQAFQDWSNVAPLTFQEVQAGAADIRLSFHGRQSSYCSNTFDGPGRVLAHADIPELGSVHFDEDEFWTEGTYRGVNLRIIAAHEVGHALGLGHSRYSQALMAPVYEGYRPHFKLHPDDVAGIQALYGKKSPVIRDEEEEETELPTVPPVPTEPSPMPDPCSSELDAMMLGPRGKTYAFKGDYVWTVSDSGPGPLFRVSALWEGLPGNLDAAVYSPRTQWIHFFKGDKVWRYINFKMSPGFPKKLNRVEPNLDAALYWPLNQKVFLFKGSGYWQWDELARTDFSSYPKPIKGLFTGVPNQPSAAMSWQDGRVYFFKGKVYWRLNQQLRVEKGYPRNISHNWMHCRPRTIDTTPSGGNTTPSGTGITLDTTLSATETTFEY

[5] = system: HEK293; test: Cytotoxicity against HEK293 cells assessed as reduction in cell viability at 2 to 128 uM incubated for 24 hrs by MTS assay; assay type: toxicity, cell-based; settings: human, hek293, 24 h, dose 2-128 µM

Row | Compound | t1/2 [1] [h] | Activity [2] | other results
1 | C=C=CC(=O)NCCCc1ccn2c(=O)cc(CNCc3ccc(-c4ccccc4)cc3)nc2c1O | 6.4 | – | –
2 | FC(F)(F)c1ccc(-c2ccc3c(c2)CC(=S)N3)c(C2CC2)c1 | – | Toxic | –
3 | FC(F)(F)c1ccc(-c2cc3c(cc2Cl)NC(=S)C3)c(C(F)(F)F)c1 | – | – | Activity [3]: Active; Activity [4]: Active
4 | FC(F)(F)c1ccc(-c2ccc3c(c2)CC(=S)N3)c(C(F)(F)F)c1 | – | Toxic | Activity [5]: Non-toxic
5 | Cn1c(SC(=O)C(C)(C)C)cc2cc(C(=O)Nc3ccccc3)ccc21 | 1.2 | – | –

Reference: ChEMBL document CHEMBL6134870 (J Med Chem, 2025)
